One block for each compound: values may come before it.
How the values were obtained:
PKCβII [1] = biological target: T1, PKCβII (Homo sapiens, UniProt P05771); experiment: […] kinase assay with substrate peptide, Dixon plot; assay type: biochemical
[2] = biological target: AKAP79(1-81)-CKAR (human) (UniProt P24588)
PKCβII [3] = biological target: T1, PKCβII; experiment: […] kinase assay with substrate peptide, Dixon plot; assay type: biochemical; remark: listed apart in the source

Ki (PKCβII [1]): 0.0145 ± 0.0046 µM
Compound: CN(C)CCCn1cc(C2=C(c3c[nH]c4ccccc34)C(=O)NC2=O)c2ccccc21 [BIS I, bisindolylmaleimide I]

T½ of the FRET response of the reporter to Oxo-M in CHO cells (cellular PKC) [2]: 8.3 s
Compound: PKCβII (Calbiochem) (from UniProt P05771-2 1-673) (enzyme)

Compound: O=C1NC(=O)C(c2c[nH]c3ccccc23)=C1c1c[nH]c2ccccc12 [BIS IV, bisindolylmaleimide IV]
32P kinase assay with substrate peptide, Dixon plot (PKCβII [3]): BIS IV, a bisindolylmaleimide derivative that lacks the dimethylamino group is an uncompetitive inhibitor with respect to the substrate peptide

Reference: paper PMC3014287 (Molecular cell, 2010)
